From the CheMixHub ionic liquid set

Experiment: xn = mol fraction of the nth substance listed
Conditions: 101 kPa

CCC(=O)[O-].C[NH2+]Cc1ccccc1 + CN(C)C=O
viscosity [mPa·s]
Conditions | 293.15 K | 298.15 K | 303.15 K | 308.15 K | 313.15 K | 318.15 K | 323.15 K | 328.15 K
x1 = 0.006359 | 0.956 | 0.914 | 0.877 | 0.845 | 0.816 | 0.79 | 0.766 | 0.745
x1 = 0.01185 | 0.969 | 0.926 | 0.888 | 0.854 | 0.824 | 0.797 | 0.772 | 0.75
x1 = 0.01701 | 0.989 | 0.944 | 0.902 | 0.866 | 0.835 | 0.807 | 0.781 | 0.758
x1 = 0.02175 | 1.007 | 0.958 | 0.915 | 0.878 | 0.845 | 0.815 | 0.788 | 0.764
x1 = 0.02663 | 1.016 | 0.966 | 0.922 | 0.884 | 0.85 | 0.819 | 0.792 | 0.768
x1 = 0.03255 | 1.045 | 0.991 | 0.944 | 0.903 | 0.866 | 0.834 | 0.805 | 0.779
x1 = 0.0357 | 1.057 | 1.001 | 0.953 | 0.911 | 0.874 | 0.841 | 0.812 | 0.786
x1 = 0.04024 | 1.072 | 1.015 | 0.965 | 0.921 | 0.882 | 0.848 | 0.818 | 0.791

CS(=O)(=O)[O-].C[N+](C)(CCO)CCO + CO
viscosity [mPa·s]
Conditions | x1 = 0.1 | x1 = 0.1996 | x1 = 0.3001 | x1 = 0.4004 | x1 = 0.5005 | x1 = 0.5976 | x1 = 0.7022 | x1 = 0.8012 | x1 = 0.9012 | x1 = 1
298.15 K | 2.03 | 5.81 | 14.8 | 34.4 | 74.1 | 164 | 316 | 566 | 940 | 1495
303.15 K | 1.85 | 5.12 | 12.57 | 28.1 | 58.3 | 125.1 | 231 | 402 | 656 | 1021
308.15 K | 1.69 | 4.55 | 10.99 | 23.3 | 46.7 | 86.6 | 175 | 296 | 469 | 716
313.15 K | 1.55 | 4.06 | 9.61 | 19.6 | 38 | 68.4 | 134.1 | 222 | 344 | 513
318.15 K | 1.431 | 3.64 | 8.35 | 16.6 | 31.3 | 54.9 | 105.2 | 170 | 258 | 378
323.15 K | 1.323 | 3.29 | 7.37 | 14.24 | 26.1 | 44.7 | 75.7 | 132.2 | 197 | 282
